The values that follow come from patent US20060093634A1, “Personal care compositions and concentrates for making the same” (Lonza Inc., priority 2004, published 2006).

The nature of this experiment: Skin moisture after application of moisturizing compositions (Corneometer). The format is in vivo. Conditions: applied to skin. Here is the method: Glycerol monostearate (GMS) cream moisturizing compositions containing 2% glycerin (Sample 1), 1% sodium erythorbate (Sample 2), 1% δ-gluconolactone (Sample 3), or 2% of a biodegradation prevention mixture containing 75% (by weight) sodium benzoate and 25% (by weight) sodium erythorbate were tested as follows.
The GMS cream was prepared as follows. Polyoxyethylene glyceryl monostearate, glyceryl monostearate, cetearyl alcohol, and myristyl propionate were mixed and heated to 60° C. in a first container. In four separate containers, glycerin, sodium erythorbate, δ-gluconolactone, or the aforementioned biodegradation prevention mixture were mixed with sterile deionized water and heated to 60° C. The solution in the first container was poured into each container containing glycerin, sodium erythorbate, δ-gluconolactone, or the biodegradation prevention mixture to produce the desired concentrations, e.g., 2% glycerin (w/w) (Sample 1), 1% sodium erythorbate (w/w) (Sample 2), 1% δ-gluconolactone (w/w) (Sample 3), or 2% biodegradation prevention mixture (w/w) (Sample 4). The containers were maintained at 60° C. for 10 minutes, and then allowed to cool. The pH of the solution was adjusted to pH 7 with sodium hydroxide to yield the GMS cream.
The moisturizing compositions were applied once to skin and skin moisture measurements were taken over a 7 day period following administration. […]

In the case of `O=C1O[C@H](CO)[C@@H](O)[C@H](O)[C@H]1O` [δ-gluconolactone], the “Skin moisturization compared with known moisturizers such as glycerin” value was “moisturize skin more effectively than many known moisturizers”.
With `O=C1O[C@H]([C@H](O)CO)C([O-])=C1O.[Na+]` [sodium erythorbate] the entry was “moisturize skin more effectively than many known moisturizers”.
